Results published in patent publication US7586008B2, “Propofol analogs, process for their preparation, and methods of use” (Abraxis Bioscience, Inc., priority 2003, dated 2009).

What was measured:
rats [1] = experiment: In vivo hypnotic/anesthetic activity, time to recovery of righting reflex; parameters: species or system rat; details: for Anesthesia Activity (Time to awakening, min): rats, tail vein injection in DMSO, 28 μmol/kg (5 mg/kg for propofol)
Experimental: (§1) To determine the binding constant (KD) of propofol and its analogs for GABAA Cl channel, binding was determined as in Example 25 in presence of increasing concentration of propofol and the KD determined graphically using the Hill plots. In vivo hypnotic activity was determined as follows. Drugs solubilized in DMSO were administered to rats by tail vein injection (N=5 rats per group). A dose level of 28 μmol/kg (5 mg/kg for propofol) was used to compensate for differences in molecular weight of the analogs. Anesthetic activity in vivo was determined as time to recovery of righting reflex following administration of the compounds.
(§2) Dose escalation experiment was performed in rat in order to compare the toxicity and the pharmacodynamic of CT8 against propofol. Drugs solubilized in DMSO were administered to rats (5 rats per group). Anesthetic activity in vivo was determined as time to recovery of righting reflex. Mortality was also monitored and the LD50 curves for propofol and CT8 constructed. In order to adjust for the differences in molecular weight between the two compounds, μmol/kg dose was used.

GABAA Cl channel = experiment: Competitive binding assay, GABAA Cl channel (3H-TBOB), bovine hippocampus; details: increasing concentration, Hill plots; for IC50: read-out: GABAA CI Channel Binding (IC50)
Experimental: The propofol binding site on GABAA was defined using a series of competitive binding assays. Frozen bovine hippocampus was thawed and homogenized in 40 volumes of ice-cold 0.32 M sucrose. The suspension was centrifuged at 1000×g for 10 minutes at 4° C. The pellet was washed twice in assay buffer and reacted with radioactive ligand in presence or absence of propofol at 10−4 M final concentration. The amount of radioactivity remained on the Whatman filter following filtration of the reaction mix and two washes with assay buffer was determined using a liquid scintillation counter. Inhibition of radioactive ligand binding by propofol represents the competitive binding of propofol to the same site as the radioactive ligand. GABAA agonist site, GABAA α-1 site, GABAA α-5 site, GABAA α-6 site, and GABAA Cl channel were assayed using ^3H-GABA, ^3H-Flunitrazepam, ^3H-RY80, ^3H-Ro 15-4513, and ^3H-TBOB.
as §1

rats [2] = experiment: Dose escalation toxicity, mortality and LD curves; details: rat
Experimental: as §2

in vivo = details: male, Sprague-Dawley, rat, whole blood, iv
[3] = rat
[4] = single i.v. bolus in DMSO, propofol 5 mg/kg, CT8 10 mg/kg

CC(C)c1cc(C(=O)c2ccc(F)cc2)cc(C(C)C)c1O [CT7, (4-fluorophenyl)-(4-hydroxy-3,5-diisopropylphenyl)methanone]
Anesthesia Activity (Time to awakening, min) (rats [1]): 34.2 ± 1.2, N = 2 min

CC(C)c1cc(C(=O)c2ccc(C(F)(F)F)cc2)cc(C(C)C)c1O [CT8, (4-(trifluoromethyl)phenyl)-(4-hydroxy-3,5-diisopropylphenyl)methanone]
IC50 (GABAA Cl channel): 570 nM
Mortality (%) (rats [2]; dose 1.427959 μmol/kg): 0%
Mortality (%) (rats [2]; dose 2.855919 μmol/kg): 0%
Mortality (%) (rats [2]; dose 14.2796 μmol/kg): 0%
Mortality (%) (rats [2]; dose 28.55919 μmol/kg): 10%
Mortality (%) (rats [2]; dose 57.11838 μmol/kg): 40%
Mortality (%) (rats [2]; dose 114.2368 μmol/kg): 100%
Mortality (%) (rats [2]; dose 228.4735 μmol/kg): 100%
calculated LD10 (rats [2]; drugs in DMSO): 29 µmol/kg
Vd (in vivo): 5.3 L/kg
clearance (in vivo): 1.33 mL/min/kg
AUC, fold higher than that of propofol ([3]; i.v. bolus, ratio to propofol): 317 ×
CL, fold slower than propofol ([3]; i.v. bolus, ratio to propofol): 146 ×
V1, fold smaller than that of propofol ([3]; i.v. bolus, ratio to propofol): 375 ×
V2, fold smaller than that of propofol ([3]; i.v. bolus, ratio to propofol): 11 ×
Vss, fold smaller than that of propofol ([3]; i.v. bolus, ratio to propofol): 14 ×
V1 [3, 4]: 0.04 L/kg
V2 [3, 4]: 5.2 L/kg
Time to Awakening (h) [mean ± SD, (N)] (rats [1]; rat, dose 1.43 μmol/kg): 0.000 ± 0.000, (5) h
Time to Awakening (h) [mean ± SD, (N)] (rats [1]; rat, dose 2.86 μmol/kg): 0.000 ± 0.000, (5) h
Time to Awakening (h) [mean ± SD, (N)] (rats [1]; rat, dose 14.28 μmol/kg): 0.748 ± 0.094, (5) h
Time to Awakening (h) [mean ± SD, (N)] (rats [1]; rat, dose 28.10 μmol/kg): 1.543 ± 0.085, (4) h
Time to Awakening (h) [mean ± SD, (N)] (rats [1]; rat, dose 28.56 μmol/kg): 1.728 ± 0.154 (5) h
Time to Awakening (h) [mean ± SD, (N)] (rats [1]; rat, dose 57.12 μmol/kg): 3.553 ± 0.166, (3) h
time rats were asleep at LD10 (rats [1]; rat, dose = LD10): 1.73 h

CC(C)c1cc(C(=O)c2ccc([N+](=O)[O-])cc2)cc(C(C)C)c1O [CY61, (4-hydroxy-3,5-diisopropylphenyl)-(4-nitrophenyl)methanone]
IC50 (GABAA Cl channel): 500 nM
Anesthesia Activity (Time to awakening, min) (rats [1]): 57.2 ± 0.7, N = 5 min

CC(C)c1cc(C(=O)c2ccc(C(F)(F)F)c(F)c2)cc(C(C)C)c1O [CY93, (3-fluoro-4-(trifluoromethyl)phenyl)-(4-hydroxy-3,5-diisopropylphenyl)methanone]
IC50 (GABAA Cl channel): 1270 nM
Anesthesia Activity (Time to awakening, min) (rats [1]): 52.4 ± 37.7, N = 3 min

CC(C)c1cc(C(=O)c2cccc(C(F)(F)F)c2)cc(C(C)C)c1O [CY96, (3-(trifluoromethyl)phenyl)-(4-hydroxy-3,5-diisopropylphenyl)methanone]
IC50 (GABAA Cl channel): 3910 nM
Anesthesia Activity (Time to awakening, min) (rats [1]): 5.5 ± 2.4, N = 5 min

CC(C)c1cc(C(=O)c2cc(F)cc(C(F)(F)F)c2)cc(C(C)C)c1O [CY97, (3-fluoro-5-(trifluoromethyl)phenyl)-(4-hydroxy-3,5-diisopropylphenyl)methanone]
IC50 (GABAA Cl channel): 4670 nM
Anesthesia Activity (Time to awakening, min) (rats [1]): 1.9 ± 1.0, N = 5 min

CC(C)c1cc(C(=O)c2ccc3ccccc3c2)cc(C(C)C)c1O [CY99, (4-hydroxy-3,5-diisopropylphenyl)-(naphthalen-2-yl)methanone]
GABAA CI Channel Binding (IC50, μM) (GABAA Cl channel): No activity
Anesthesia Activity (Time to awakening, min) (rats [1]): 5.5 ± 3.4, N = 5 min

CC(C)c1cc(C(=O)c2cc(C(F)(F)F)cc(C(F)(F)F)c2)cc(C(C)C)c1O [CY104, (3,5-bis(trifluoromethyl)phenyl)-(4-hydroxy-3,5-diisopropylphenyl)methanone]
IC50 (GABAA Cl channel): 21300 nM
Anesthesia Activity (Time to awakening, min) (rats [1]): 6.4 ± 2.8, N = 4 min

CC(C)c1cc(C(=O)c2ccc(C(C)(C)C)cc2)cc(C(C)C)c1O [CY120, (4-tert-butylphenyl)-(4-hydroxy-3,5-diisopropylphenyl)methanone]
Anesthesia Activity (Time to awakening, min) (rats [1]): 15.5 ± 9.2, N = 2 min

CC(C)Cc1ccc(C(=O)c2cc(C(C)C)c(O)c(C(C)C)c2)cc1 [CY122, (4-hydroxy-3,5-diisopropylphenyl)-(4-isobutylphenyl)methanone]
Anesthesia Activity (Time to awakening, min) (rats [1]): 7.6 ± 1.8, N = 5 min

CON=C(c1ccc(C(F)(F)F)cc1)c1cc(C(C)C)c(O)c(C(C)C)c1 [CY127, 4-((4-(trifluoromethyl)phenyl)-(methoxyimino)methyl)-2,6-diisopropylphenol]
Anesthesia Activity (Time to awakening, min) (rats [1]): 8.8 ± 5.8, N = 5 min

CC(C)c1cc(Cc2ccc(C(F)(F)F)cc2)cc(C(C)C)c1O [CY130, 4-(4-(trifluoromethyl)benzyl)-2,6-diisopropylphenol]
Anesthesia Activity (Time to awakening, min) (rats [1]): 8.2 ± 3.0, N = 5 min

CC(C)c1cc(C(O)c2ccc(C(F)(F)F)cc2)cc(C(C)C)c1O (stereo not drawn) [CY135, 4-((4-(trifluoromethyl)phenyl)-(hydroxy)methyl)-2,6-diisopropylphenol]
Anesthesia Activity (Time to awakening, min) (rats [1]): 15.0 ± 11.4, N = 5 min

CC(C)c1cc(C(=O)c2ccc(I)cc2)cc(C(C)C)c1O [CY155, (4-hydroxy-3,5-diisopropylphenyl)-(4-iodophenyl)methanone]
IC50 (GABAA Cl channel): 570 nM

COc1ccc(C(=O)c2cc(C(C)C)c(O)c(C(C)C)c2)cc1 [CY157, (4-hydroxy-3,5-diisopropylphenyl)-(4-methoxyphenyl)methanone]
Anesthesia Activity (Time to awakening, min) (rats [1]): 0.0 + 0.0, N = 5 min

CC(C)c1cc(C(=O)c2ccc(C#N)cc2)cc(C(C)C)c1O [CY175, (4-cyanophenyl)-(4-hydroxy-3,5-diisopropylphenyl)methanone]
Anesthesia Activity (Time to awakening, min) (rats [1]): 43.4 ± 23.5, N = 2 min

CC(C)c1cc(C(=O)c2ccc(C(F)(F)F)nc2)cc(C(C)C)c1O [CY176, (6-(trifluoromethyl)pyridin-3-yl)-(4-hydroxy-3,5-diisopropylphenyl)methanone]
Anesthesia Activity (Time to awakening, min) (rats [1]): 14.9 + 21.1, N = 2 min

CC(C)c1cc(C(=O)c2ccc(S(C)(=O)=O)cc2)cc(C(C)C)c1O [CY177]
Anesthesia Activity (Time to awakening, min) (rats [1]): 4.6 ± 1.5, N = 5 min

CC(C)c1cc(C(=O)c2ccc(Br)cc2)cc(C(C)C)c1O [CY178, (4-bromophenyl)-(4-hydroxy-3,5-diisopropylphenyl)methanone]
Anesthesia Activity (Time to awakening, min) (rats [1]): 66.6 ± 17.9, N = 5 min

CCCc1ccc(C(=O)c2cc(C(C)C)c(O)c(C(C)C)c2)cc1 [CY181, (4-hydroxy-3,5-diisopropylphenyl)-(4-propylphenyl)methanone]
Anesthesia Activity (Time to awakening, min) (rats [1]): 9.0 + 20.1, N = 5 min

CC(C)c1cc(C(=O)c2ccc(Cl)cc2)cc(C(C)C)c1O [CY182, (4-chlorophenyl)-(4-hydroxy-3,5-diisopropylphenyl)methanone]
Anesthesia Activity (Time to awakening, min) (rats [1]): 67.7 ± 5.1, N = 3 min
